SMILES strings stand for the structures.

The term Ki denotes a measure of affinity in units of concentration, obtained from inhibition or displacement. The low end stands for a stronger hold on the target, the high end for a looser hold on the target.

One test deals with T1, hCRTH2 (Homo sapiens, UniProt Q9Y5Y4).
T1 construct: expressed in transfected cells; host or cells: HEK (human embryonic kidney) cells expressing hCRTH2; membrane preparation
T1 sequence (Q9Y5Y4 1-395): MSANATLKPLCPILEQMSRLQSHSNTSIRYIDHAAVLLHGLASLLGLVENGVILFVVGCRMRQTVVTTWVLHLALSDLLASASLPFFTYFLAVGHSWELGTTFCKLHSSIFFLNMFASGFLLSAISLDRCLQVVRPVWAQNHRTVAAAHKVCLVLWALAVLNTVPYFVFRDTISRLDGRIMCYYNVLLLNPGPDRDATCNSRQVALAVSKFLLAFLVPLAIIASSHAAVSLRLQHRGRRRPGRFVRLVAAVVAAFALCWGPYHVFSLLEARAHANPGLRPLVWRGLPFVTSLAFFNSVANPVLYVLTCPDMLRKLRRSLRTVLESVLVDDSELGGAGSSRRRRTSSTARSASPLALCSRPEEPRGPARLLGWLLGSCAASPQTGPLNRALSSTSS
Briefly: Radioligand binding assay ([3H]PGD2 competition, HEK-hCRTH2 membranes). The settings on record: [3H]PGD2 binding, rated A-E (Table A). Put shortly:
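Membranes (8-20 μg protein) from HEK-hCRTH2 cells were incubated 60 min at room temperature with 3.0 nM [3H]PGD2 in 50 mM Tris-HCl pH 7.4, 1 mM EDTA, 2 mM MnCl2, 1% DMSO. Non-specific binding defined with 10 μM PGD2. Bound radioactivity counted after filtration.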
For the molecule `O=C(O)CCCCc1nc2cc(C(=O)N3CCCc4ccccc43)ccc2nc1-c1ccccc1` [15Bi, 5-[7-(3,4-dihydro-quinolin-1(2H)-ylcarbonyl)-3-phenylquinoxalin-2-yl]pentanoic acid], the Ki was in the range of 0.1 to 2 nM.
The same measure, in the same setting: with `CN(C(=O)c1ccc2nc(-c3ccccc3)c(CCCCC(=O)O)nc2c1)C1CCOC1` (centres unmarked) [15Bo, 5-{7-[methyl (tetrahydrofuran-3-yl)carbamoyl]-3-phenylquinoxalin-2-yl} pentanoic acid] the figure was 20.1 to 200 nM.
`O=C(O)CCCCc1nc2cc(C(=O)NCc3ccc(C(F)(F)F)cc3)ccc2nc1-c1ccccc1` [15C, 5-(3-phenyl-7-{[4-(trifluoromethyl)benzyl]carbamoyl}quinoxalin-2-yl)pentanoic acid] yielded a Ki of 0.1 to 2 nM.
Consider `C[C@@H](NC(=O)c1ccc2nc(-c3ccccc3)c(CCCCC(=O)O)nc2c1)c1ccc(F)cc1` [15D, 5-(7-{[(1R)-1-(4-fluorophenyl)ethyl]carbamoyl}-3-phenyl-quinoxalin-2-yl)pentanoic acid], for which the Ki fell in the range of 0.1 to 2 nM.
Molecule `C[C@H](NC(=O)c1ccc2nc(-c3ccccc3)c(CCCCC(=O)O)nc2c1)c1ccc(F)cc1` [15E, 5-(7-{[(1S)-1-(4-fluorophenyl)ethyl]carbamoyl}-3-phenylquinoxalin-2-yl)pentanoic acid] returned a Ki of 0.1 to 2 nM.
Take `O=C(O)CCCCc1nc2cc(C(=O)N[C@@H](c3ccccc3)C(F)(F)F)ccc2nc1-c1ccccc1` [15F, 5-(3-phenyl-7-{[(1S)-2,2,2-trifluoro-1-phenylethyl]carbamoyl}quinoxalin-2-yl) pentanoic acid]: the Ki is 2.1 to 20 nM.
Still for that read-out and setting: the same measure for `O=C(O)CCCCc1nc2cc(C(=O)N[C@H](c3ccccc3)C(F)(F)F)ccc2nc1-c1ccccc1` [15G, 5-(3-phenyl-7-{[(1R)-2,2,2-trifluoro-1-phenylethyl]carbamoyl}quinoxalin-2-yl) pentanoic acid]: 2.1 to 20 nM.
The same measure, in the same setting: the same measure for `O=C(O)CCCCc1nc2cc(C(=O)N3CCC4(CC3)CNC4)ccc2nc1-c1ccccc1` [15H, 5-[7-(2,7-diazaspiro-[3.5]non-7-ylcarbonyl)-3-phenylquinoxalin-2-yl]pentanoic acid]: 20.1 to 200 nM.
Same read-out and setting: with `O=C(O)CCCCc1nc2cc(C(=O)N3CCNC(c4ccccc4)C3)ccc2nc1-c1ccccc1` (centres unmarked) [15J, 5-{3-phenyl-7-[(3-phenylpiperazin-1-yl)carbonyl]quinoxalin-2-yl}pentanoic acid] the figure was 2.1 to 20 nM; with `O=C(O)CCCCc1nc2cc(C(=O)N3CCNC(Cc4ccccc4)C3)ccc2nc1-c1ccccc1` (centres unmarked) [15K, 5-{7-[(3-benzylpiperazin-1-yl)carbonyl]-3-phenyl-quinoxalin-2-yl}pentanoic acid], 2.1 to 20 nM; with `CCN1CCN(C(=O)c2ccc3nc(-c4ccccc4)c(CCCCC(=O)O)nc3c2)CC1` [15L, 5-{7-[(4-ethylpiperazin-1-yl)carbonyl]-3-phenylquinoxalin-2-yl}pentanoic acid], 20.1 to 200 nM.
`COCCN1CCN(C(=O)c2ccc3nc(-c4ccccc4)c(CCCCC(=O)O)nc3c2)CC1` [15M, 5-(7-{[4-(2-methoxy-ethyl)piperazin-1-yl]-carbonyl}-3-phenyl-quinoxalin-2-yl) pentanoic acid] had a Ki of 20.1 to 200 nM.
As for `COc1ccc(C2CCN(C(=O)c3ccc4nc(-c5ccccc5)c(CCCCC(=O)O)nc4c3)C2)cc1` (centres unmarked) [15N, 5-(7-{[3-(4-methoxy-phenyl)pyrrolidin-1-yl]-carbonyl}-3-phenyl-quinoxalin-2-yl) pentanoic acid], the Ki lay in the range of 2.1 to 20 nM.
Still for that read-out and setting: with `O=C(O)CCCCc1nc2cc(C(=O)N3CCC(c4cccc(Cl)c4)C3)ccc2nc1-c1ccccc1` (centres unmarked) [15P, 5-(7-{[3-(3-chloro-phenyl)pyrrolidin-1-yl]-carbonyl}-3-phenyl-quinoxalin-2-yl) pentanoic acid] the figure was 0.1 to 2 nM; with `O=C(O)CCCCc1nc2cc(C(=O)NC(c3ccc(F)cc3)C(F)(F)F)ccc2nc1-c1ccccc1` (centres unmarked) [15Q, 5-(3-phenyl-7-{[2,2,2-trifluoro-1-(4-fluoro-phenyl)ethyl]carbamoyl}-quinoxalin-2-yl)pentanoic acid], 0.1 to 2 nM; with `O=C(O)CCCCc1nc2cc(C(=O)N3CCC(Cc4ccccc4)C3)ccc2nc1-c1ccccc1` (centres unmarked) [15R, 5-{7-[(3-benzylpyrrolidin-1-yl)carbonyl]-3-phenyl-quinoxalin-2-yl}pentanoic acid], 0.1 to 2 nM.
`O=C(O)CCCCc1nc2cc(C(=O)N3CCC(c4ccc(F)cc4)C3)ccc2nc1-c1ccccc1` (centres unmarked) [15S, 5-(7-{[3-(4-fluorophenyl)-pyrrolidin-1-yl]carbonyl}-3-phenylquinoxalin-2-yl)-pentanoic acid] gave a Ki of 0.1 to 2 nM.
On the same count and under the same terms, the same measure for `O=C(O)CCCCc1nc2cc(C(=O)NCc3ccc(Cl)cc3)ccc2nc1-c1ccccc1` [15T, 5-{7-[(4-chlorobenzyl)-carbamoyl]-3-phenyl-quinoxalin-2-yl} pentanoic acid]: 0.1 to 2 nM.
With `O=C(O)CCCCc1nc2cc(C(=O)NCc3cccc(Cl)c3)ccc2nc1-c1ccccc1` [15U, 5-{7-[(3-chlorobenzyl)carbamoyl]-3-phenylquinoxalin-2-yl}pentanoic acid], the Ki fell in the range of 2.1 to 20 nM.
The same measure, in the same setting: the same measure for `O=C(O)CCCCc1nc2cc(C(=O)NCc3ccccc3Cl)ccc2nc1-c1ccccc1` [15V, 5-{7-[(2-chlorobenzyl)carbamoyl]-3-phenylquinoxalin-2-yl}pentanoic acid]: 0.1 to 2 nM; for `CC(C)(NC(=O)c1ccc2nc(-c3ccccc3)c(CCCCC(=O)O)nc2c1)c1ccccc1` [15X, 5-{7-[(1-methyl-1-phenylethyl)carbamoyl]-3-phenylquinoxalin-2-yl}pentanoic acid]: 0.1 to 2 nM.
The same measure, in the same setting: with `O=C(O)CCCCc1nc2cc(C(=O)N3CCCC(c4ccccc4)C3)ccc2nc1-c1ccccc1` (centres unmarked) [15Y, 5-{3-phenyl-7-[(3-phenylpiperidin-1-yl)carbonyl]quinoxalin-2-yl}pentanoic acid] the figure was 0.1 to 2 nM; with `O=C(O)CCCCc1nc2cc(C(=O)NCc3ccccc3)ccc2nc1-c1ccccc1` [15Z, 5-[7-(benzylcarbamoyl)-3-phenylquinoxalin-2-yl]pentanoic acid], 0.1 to 2 nM; with `O=C(O)CCCCc1nc2cc(C(=O)N3CC4(CCNCC4)C3)ccc2nc1-c1ccccc1` [15i, 5-[7-(2,7-diazaspiro-[3.5]non-2-ylcarbonyl)-3-phenylquinoxalin-2-yl]pentanoic acid], 201 to 700 nM.
Still for that read-out and setting: with `O=C(O)CCCCc1nc2cc(C(=O)N3CCN(S(=O)(=O)c4ccccc4)CC3)ccc2nc1-c1ccccc1` [15o, 5-(3-phenyl-7-{[4-(phenylsulfonyl)piperazin-1-yl]carbonyl}quinoxalin-2-yl)pentanoic acid] the figure was 2.1 to 20 nM; with `O=C(O)CCCCc1nc2cc(C(=O)NCc3cccc(C(F)(F)F)c3)ccc2nc1-c1ccc(Cl)cc1` [16AB, 3-(4-chlorophenyl)-7-[[[[3-(trifluoromethyl)phenyl]methyl]amino]carbonyl]-2-quinoxalinepentanoic acid], 0.1 to 2 nM.
Take `O=C(O)CCCCc1nc2cc(C(=O)NCc3cccc(OC(F)(F)F)c3)ccc2nc1-c1ccc(Cl)cc1` [16AC, 3-(4-chlorophenyl)-7-[[[[3-(trifluoromethoxy)phenyl]methyl]amino]carbonyl]-2-quinoxalinepentanoic acid]: the Ki was 0.1 to 2 nM.
Still for that read-out and setting: with `C[C@@H](NC(=O)c1ccc2nc(-c3ccc(Cl)cc3)c(CCCCC(=O)O)nc2c1)c1ccc(Cl)cc1` [16AD, 3-(4-chlorophenyl)-7-[[[(R)-(4-chlorophenyl)ethyl]amino]carbonyl]-2-quinoxalinepentanoic acid] the figure was 0.1 to 2 nM.
With `C[C@H](NC(=O)c1ccc2nc(-c3ccc(Cl)cc3)c(CCCCC(=O)O)nc2c1)c1ccc(Cl)cc1` [16AE, 3-(4-chlorophenyl)-7-[[[1(S)-(4-chlorophenyl)ethyl]amino]carbonyl]-2-quinoxalinepentanoic acid], the Ki fell in the range of 0.1 to 2 nM.
Molecule `O=C(O)CCCCc1nc2cc(C(=O)N3CC(c4ccccc4)C3)ccc2nc1-c1ccc(Cl)cc1` [16AF, 3-(4-chlorophenyl)-7-[(3-phenyl-1-azetidinyl)carbonyl]-2-quinoxalinepentanoic acid] returned a Ki of 0.1 to 2 nM.
For the molecule `O=C(O)CCCCc1nc2cc(C(=O)N3CCN(c4ccccc4)CC3)ccc2nc1-c1ccc(Cl)cc1` [16AG, 3-(4-chlorophenyl)-7-[(4-phenyl-1-piperazinyl)carbonyl]-2-quinoxalinepentanoic acid], the Ki lay within 0.1 to 2 nM.
The same measure, in the same setting: with `O=C(O)CCCCc1nc2cc(C(=O)N[C@H](c3ccccc3)C(F)(F)F)ccc2nc1-c1ccc(Cl)cc1` [16AH, 3-(4-chlorophenyl)-7-[[(2,2,2-trifluoro-1(R)-phenylethyl)amino]carbonyl]-2-quinoxalinepentanoic acid] the figure was 2.1 to 20 nM; with `O=C(O)CCCCc1nc2cc(C(=O)N3CC=C(c4ccccc4)CC3)ccc2nc1-c1ccc(Cl)cc1` [16AJ, 3-(4-chlorophenyl)-7-[(3,6-dihydro-4-phenyl-1(2H)-pyridinyl)carbonyl]-2-quinoxalinepentanoic acid], 0.1 to 2 nM; with `N#CC1(c2ccccc2)CCN(C(=O)c2ccc3nc(-c4ccc(Cl)cc4)c(CCCCC(=O)O)nc3c2)CC1` [16AK, 3-(4-chlorophenyl)-7-[(4-cyano-4-phenyl-1-piperidinyl)carbonyl]-2-quinoxalinepentanoic acid], 0.1 to 2 nM.

Still in this test, the particulars now being: [3H]PGD2 binding, values in text.
With `O=C(O)CCCCc1nc2cc(C(=O)N3CCC4(CC3)CNC4)ccc2nc1-c1ccccc1` [15H, 5-[7-(2,7-diazaspiro-[3.5]non-7-ylcarbonyl)-3-phenylquinoxalin-2-yl]pentanoic acid], the Ki was determined as 152 nM.
`O=C(O)CCCCc1nc2cc(C(=O)N3CC4(CCNCC4)C3)ccc2nc1-c1ccccc1` [15i, 5-[7-(2,7-diazaspiro-[3.5]non-2-ylcarbonyl)-3-phenylquinoxalin-2-yl]pentanoic acid] displayed a Ki of 283 nM.
On the same count and under the same terms, the same measure for `O=C(O)CCCCc1nc2cc(C(=O)N3CCN(S(=O)(=O)c4ccccc4)CC3)ccc2nc1-c1ccccc1` [15o, 5-(3-phenyl-7-{[4-(phenylsulfonyl)piperazin-1-yl]carbonyl}quinoxalin-2-yl)pentanoic acid]: 16.7 nM; for `O=C(O)CCCCc1nc2cc(C(=O)N3CCN(c4ccccc4)CC3)ccc2nc1-c1ccc(Cl)cc1` [16AG, 3-(4-chlorophenyl)-7-[(4-phenyl-1-piperazinyl)carbonyl]-2-quinoxalinepentanoic acid]: 1.2 nM.

The values are drawn from patent US9469615B2, “Quinoxalines and AZA-quinoxalines as CRTH2 receptor modulators” (Merck Sharp & Dohme Corp., priority 2010, dated 2016).
